Measurements as given in US9238015B2 (NESTEC S.A., priority 2012, dated 2016).

What was measured:
[1] = system: HT-29 clone 34 cells; test: HT-29 clone 34 cell viability (ATP, Cell Titer-Glo); assay type: cell-based, human; conditions: HT-29 clone 34 cells (FIG. 5)
Protocol: 10000 cells/well were seeded in 200 μl of culture medium in flat bottom white border 96 well plates (Greiner Bio One, Kremsmuenster, Austria). […] 20 μl of experimental medium containing (or not) LPS 055:B5 or rhTNF-α (100 and 10 ng/ml final, respectively) was added and the plates were incubated for 24 hours at 37° C. in a 5% CO2/air incubator.
Cell viability was determined by measuring ATP using Cell Titer-Glo kit (Promega). Briefly, remaining adherent HT-29 clone 34 cells were incubated for 10 min at room temperature under horizontal shaking (250 rpm) with 120 μl of Cell Titer-Glo reagent (pre-diluted twice in 1×PBS) and the luminescence was measured using Polarstar microplate reader (BMG, Offenburg, Germany) for 1000 ms with a gain value set to 3500.

[2] = system: NF-κB; test: NF-κB activity (SEAP and IL-8 production) in HT-29 clone 34 cells; assay type: cell-based, human
Protocol: Two in-vitro systems were used: human colonic cells (HT-29 clone 34) and human monocytes/macrophages (THP-1 blue cells). The human colonic adenocarcinoma HT-29 clone 34 cell line (passage 42-50) are adherent cells stably transfected with a NF-κB/SEAP reporter plasmid. They were cultured in DMEM high glucose (4.5 g/L) (Invitrogen) containing 1% of stable L-glutamine and supplemented with 10% of heat inactivated (one hour at 56° C.) Foetal Calf Serum (FCS) (Bioconcept, Allschwil, Switzerland), 1% of Penicillin/Streptomycin (Sigma) and 500 μg/ml of Geneticin (PAA, Pasching, Austria) at 37° C. in a 5% CO2/air incubator. Culture medium was renewed every two days until the cell monolayer reached ˜90% confluence. Cells were sub-cultured using 1× Trypsin/EDTA (Sigma). 10000 cells/well were seeded in 200 μl of culture medium in flat bottom white border 96 well plates (Greiner Bio One, Kremsmuenster, Austria). […] Cell culture supernatants were then collected for measurement of NF-κB activity (determination of secreted alkaline phosphatase and IL-8 production) using Phosphalight (Applied Biosystems) and IL-8 singleplex (Meso Scale, Gaithersburg, Md.) kits, respectively.

[3] = system: THP-1 blue cells; test: THP-1 blue cell viability (Cell Titer-Glo); assay type: cell-based, human; conditions: THP-1 blue cells (FIG. 6)
Protocol: 200000 cells/well were seeded in 100 μl of culture medium in 96 well flat bottom transparent plates. […] 20 μl of culture media containing (or not) LPS 055:B5 (Sigma) (100 ng/ml final) was added and the plates were incubated for 16 hours at 37° C. in a 5% CO2/air incubator.
Cell culture supernatants were carefully transferred to 96 well-plates for NF-κB activity measurement which is proportional to the level of secreted alkaline phosphatase. Briefly, 100 μl of supernatants were mixed with 150 μl of QuantiBlue (Invivogen) in a 96 well-plates incubated for 3 h at 37° C. before OD measurements at 620 nm with Sunrise microplate reader (Tecan, Mannedorf, Switzerland). Cell viability was determined using Cell Titer-Glo kit as described above.

[4] = system: Nrf2; test: Nrf2 reporter assay (AREc32 cells, ARE-luciferase); assay type: cell-based; conditions: 24 h, dose range 0 to 200 μM (FIG. 3)
Protocol: Activation of Nrf2 was measured using an Nrf2 reporter assay. This assay is based on the AREc32 cell line, from CRX biosciences (Dundee, Scotland), a stably transfected MCF7 (breast adenocarcinoma) cell line that contains a luciferase gene construct under the control of the ARE. Luciferase is an enzyme which digests luciferin and produces […]. Anti-oxidative molecules such as Tert-butylhydroquinone (TBHQ) induce luciferase transcription via the activation of Nrf2 that binds to ARE. Luciferase activity is determined using a luciferase kit form Promega (Madison, Wis.). The luciferase activity is proportional to the activation of Nrf2. […] The luciferase activity and the cell viability (ATP measurements) were determined using the Luciferase and Cell Titer-Glo kits from Promega. For each run the luciferase activities, measured in Relative Light Units (RLU), of all the wells were normalized with the mean of the luciferase activity of the cells only of all the plates. Among all the samples tested the normalization procedure was found not to affect the data and this observation permits the comparison of samples measured in different runs. For each sample the Nrf2 activation was calculated as follows: […] […] The luciferase content per sample allows a semi quantification of the Nrf2 activation by reflecting the amount of the Nrf2 activating molecule. […]

[5] = system: AREc32 cells; test: AREc32 cell viability (ATP quantification, Cell Titer-Glo); assay type: cell-based; conditions: 24 h
Protocol: To determine the Nrf2 activation the samples were tested on AREc32 cells (seeded in 96 well plates) using 10 independent dilutions (1/2, 1/4, 1/6, 1/10, 1/15, 1/20, 1/25, 1/30, 1/40 and 1/50) and incubated for 24 hours at 37° C. in a 5% CO2/air incubator. The luciferase activity and the cell viability (ATP measurements) were determined using the Luciferase and Cell Titer-Glo kits from Promega.
The cell viability was also measured using a cell Titer-Glo kit (ATP quantification).

CC(=O)/C=C/C(=O)O [4-oxo-2-pentenoic acid]
doses showing a decrease in cell viability [1]: > 50 µM | inhibition of NF-κB activity ([2]; HT-29 clone 34 cells stimulated with LPS (FIG. 5)): inhibits NF-κB activity in a dose dependent manner | NF-κB activity (SEAP or IL-8 detection) in the absence of LPS ([2]; HT-29 clone 34 cells, no LPS, doses tested 3 to 400 μM): no NF-κB activity was observed | doses toxic to cells [3]: higher than 75 μM | Nrf2 activation [4]: strongly activate Nrf2 in a dose dependent manner | doses at which viability of AREc32 cells was not affected [5]: lower than 70 μM
